“Also recorded” adds a separate entry of the source.
Key:
[1] = tested on: mice subjected to traumatic brain injury (TBI); assay: Traumatic brain injury (TBI) in mice, Western blot analysis for GFAP; type: in vivo, C57BL/6 mice; settings: for efficacy in the mouse TBI model: summary statement, FIG. 12; for GFAP expression in brain (GFAP/actin, Western blot): 7 days post-injury, vs TBI untreated
Description: Animals and traumatic brain injury (TBI): TBI was performed with a controlled closed skull injury model as described in […] al. 2012 (J. Neurotrauma 30, 55-66). Following the method described therein, a pneumatic impact device was used to generate a moderate TBI leaving the skull and dura matter intact. To achieve this, C57BL/6 mice were anesthetized with isoflurane (3% induction, 1% maintenance) in 100% oxygen. A body temperature of 37° C. was maintained using a temperature-controlled heated surgical table. A small midline incision was made on the scalp using aseptic surgical techniques. A 5 mm stainless steel disc was positioned on the skull and fixed using superglue on the right parietal bone between bregma and lamda over the somatosensory cortex. The mouse was then positioned on a stage directly under the pneumatic impact tip. […] Scalp incisions were closed using 4-0 nylon braided suture and antibiotic ointment applied to the incision. Mice were placed in a Thermo-Intensive Care Unit (Braintree Scientific model FV-1; 37° C.; 27% 02) and monitored until fully awake and moving freely. […] Western Blot Analysis for GFAP: At selected survival times, mice were anesthetized under isoflurane and sacrificed. The brain was removed and placed on ice for dissection into impacted and non-impacted brain hemispheres. […] The homogenate was transferred to a 2 mL tube and centrifuged at 1000 g for 10 minutes at 4° C. and the supernatant was collected and analyzed. Protein concentration was determined by the BCA assay using a 1:50 dilution. 100 μg of protein was removed as an aliquot for each sample and Laemmli buffer containing β-mercaptoethanol added and the sample placed in a heat block for 3 minutes at 95° C. Samples were loaded on a 12% gel and ran at 80 V for 20 minutes followed by 40 minutes at 130 V. Samples were transferred to nitrocellulose membrane at 100 V for 1 hour. The membrane was blocked with 5% milk in TBS-T for 30 minutes. GFAP (1:1000-Imgenex IMG-5083-A) was added and placed at 4° C. overnight. The membrane was washed with TBS-T three times for 10 minutes. Secondary antibody for GFAP (Donkey anti-rabbit HRP conjugated (ImmunoJackson Laboratories; 711-035-152; 1:20000) was applied at room temperature for 1 hour. The membranes were washed with TB S-T for 15 minutes (3 times) and developed using the Western Lightning Plus-ECL kit (PerkinElmer, Inc.) following manufacturer's directions.

mice subjected to stroke = assay: Photothrombosis-induced stroke in mice, TTC-stained brain infarction size; type: in vivo, C57Bl/6 mice; settings: for efficacy in the mouse photothrombotic stroke model: summary statement; for size of brain infarctions in mice pretreated with A3 receptor antagonist MRS1523: MRS1523 2 mg/kg ip at 0 and 2 hour, treatment within 30 minutes of clot formation; for size of brain infarctions in mice pretreated with A3 receptor antagonist MRS1523 / size of the brain infarction (TTC staining): 24 hours; for size of the brain infarction (TTC staining): photothrombotic stroke mice, vs vehicle
Description: Photothrombosis-induced Stroke: Photothrombosis was performed as described in Zheng et al 2010 (PloS One 5 (12): e14401). In brief, Rose Bengal is a fluorescent dye that when injected into the vasculature and excited, generates singlet oxygen that damages the endothelial wall and induces a local thrombosis (clot). Using this technique, mice were given a 0.1 mL tail-vein injection of sterilized Rose Bengal (RB, Sigma, U.S.A.) in artificial cerebral spinal fluid (aCSF). The RB concentration was 20 mg/mL. A cortical region was centered in the imaging field and illuminated with a green laser (543 nm, 5 mW) using a 0.8-NA 40× water-immersion objective (Nikon, Tokyo). The clot formation was monitored in real time until the targeted vessel or downstream capillaries were firmly occluded. Stable clots were subsequently identified by a non-fluorescent vessel segmentation ending with highly fluorescent regions. […] Treatments, MRS4322 (0.16 mg/kg; 0.5 μmol/kg) or MRS2365 (0.24 mg/kg; 0.5 μmol/kg) were introduced via intraperitoneal injections (i.p.). For experiments with A3 receptor antagonist MRS1523, mice were administered intraperitoneal injections (2 mg/kg) at the 0 and 2 hour timepoints to ensure receptor antagonism throughout the course of the study.
Animals and Photothrombosis-induced Stroke: Stroke was performed as described in Zheng et al 2010 (PloS One 5 (12): e14401). Female C57Bl/6 mice (4-6 months) were used in this study. From the methods of this manuscript: Mice were anesthetized at 3% isoflurane with 100% oxygen and subsequently maintained at 1% isoflurane through a nosecone. Depth of anesthesia was monitored and regulated according to vital signs, pinch withdrawal and eye blinks. Body temperature was maintained at 37° C. by a feedback-controlled heating pad (Gaymar T/Pump). Vital signs including oxygen saturation, respiratory rate, and heart rate were continuously monitored by using the MouseOx system (STARR Life Sciences). The hair on each mouse's head was trimmed and a small incision was made in the scalp to expose the skull. A custom-made stainless steel plate was glued to the skull with VetBond Tissue Adhesive (3M, St Paul, MN). A cranial thinned-skull imaging window was created over the right primary somatosensory cortex (˜1.5 mm posterior to Bregma and 2 mm lateral from midline) depending on the experiment. In brief, a large region of the skull was first thinned with the electric drill and then further thinned with a surgical blade. The final thickness of the thinned skull was approximately 50 μm. After the cranial imaging window was created, mice were transferred to microscope stage and used for photothrombosis or imaging experiments. For the repeat imaging experiments, the plate was carefully detached from the skull and the scalp was sutured (Ethicon 6-0 sild suture). After each experiment, the mice were either returned to cages until the next timepoint or sacrificed. All procedures were approved by the Institutional Animal Care and Use Committee (IACUC) at University of Texas Health Science Center at San Antonio. Thirty minutes following stroke or sham (uninjured), mice were treated with either vehicle (saline) or drugs (MRS4322, MRS2365, MRS5698 or Cl-IBMECA).
Post photothrombotic infarction evaluation. The size of cerebral infarcts was evaluated using 2,3,5-Triphenyltetrazolium chloride (TTC) staining as described in Zheng et al 2010 (PloS One 5 (12): e14401). In brief, RB-induced lesions in brain slices were stained with TTC. TTC is a colorless dye that stains healthy brain tissue red when reduced by the mitochondrial enzyme succinyl dehydrogenase (Bederson J B et al., 1986). The absence of staining in necrotic tissue is then used to define the area of a brain infarction. Mice were sacrificed by cervical dislocation, their brains removed and then placed in ice cold HBSS for 3 minutes. The brain was subsequently transferred to a brain mold (KOPF), sliced into 1 mm sections and immersed in 2% TTC (5 min) at 37° C. […]

[2] = TBI mice, treated 30 min post-TBI, approximately 0.5 μmol/kg
[3] = 0.5 μmol/kg ip within 30 minutes of clot formation

Compound | efficacy in the mouse TBI model [1] | efficacy in the mouse photothrombotic stroke model (mice subjected to stroke) | GFAP expression in brain (GFAP/actin, Western blot) [1, 2] | size of brain infarctions in mice pretreated with A3 receptor antagonist MRS1523 (mice subjected to stroke) | size of the brain infarction (TTC staining) (mice subjected to stroke; [3]) | GFAP levels in plasma relative to actin (Western blot) ([1]; TBI mice, treated 30 min post-TBI, approximately 0.5 μmol/kg, day 7, vs TBI untreated) | size of the brain infarction (TTC staining) (mice subjected to stroke; 100 ul of 100 uM ip within 30 minutes of clot formation)
CNC(=O)[C@H]1O[C@@H](n2cnc3c(NCc4cccc(I)c4)nc(Cl)nc32)[C@H](O)[C@@H]1O [Cl-IB-MECA, 2-Chloro-N^6-(3-iodobenzyl)-adenosine-5′-N-methyluronamide, reference compound] | weakly active | inactive | – | – | – | – | –
CSc1nc(N)c2ncn([C@H]3[C@H](O)[C@H](O)[C@]4(COP(=O)(O)OP(=O)(O)O)C[C@H]34)c2n1 [MRS2365] | – | – | significantly lower; also recorded: decreased | not reduced | significantly reduced | – | –
CSc1nc(N)c2ncn([C@H]3[C@H](O)[C@H](O)[C@]4(CO)C[C@H]34)c2n1 [MRS4322] | significant efficacy | significant efficacy | significantly lower; also recorded: decreased | not reduced; also recorded: reversed by MRS1523 | significantly reduced; also recorded: reduced the effects of stroke infarction | significantly reduced | significantly reduced

Source: patent US12239654B2, “Compounds and methods for treating neurological and cardiovascular conditions” (Astrocyte Pharmaceuticals, Inc., priority 2016, dated 2025)
